Laboratory results reported in article PMC11246197 (Journal of medicinal chemistry, 2024).

Test system: SARS-CoV-2 Omicron variant BA.1
Type: cell-based
Settings: read-out: EC50 against SARS-CoV-2 Omicron variant BA.1

CC(C)OC(=O)[C@H](C)N[P@](=O)(OC[C@H]1O[C@@](C#N)(c2ccc3c(N)ncnn23)[C@H](O)[C@@H]1O)Oc1ccccc1 [IsoRDV] showed an EC50 of 0.54 µM.
